The values that follow come from PMC8708872, “Discovery of a Novel Template, 7-Substituted 7-Deaza-4′-Thioadenosine Derivatives as Multi-Kinase Inhibitors” (Pharmaceuticals, 2021).

Where only a bound is given, the exact number is not on record here.

The target of test [1] is T1, DYRK1B (Homo sapiens, UniProt Q9Y463).
T1 construct: purchased Eurofins DiscoverX Corporation
Briefly: Kinase inhibition profile, KINOMEscan 11-point dose response. The test is classed as binding.

Test [2] has as its target T2, RIOK2 (Homo sapiens, UniProt Q9BVS4).
T2 construct: purchased Eurofins DiscoverX Corporation
Kind of test: Kinome scan. The test is classed as binding. As to conditions: 1000 nM. Put shortly: (§1)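 Single-point binding screen, 1 μM compound, 96 kinases, n = 2 independent experiments; output as % inhibition, higher values reflecting tighter binding.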

Test [3] can be described thus: Kinome scan. In kind it is binding. As to conditions: 1000 nM, ZAP70 (Entrez gene symbol printed STK32C). Put shortly:
as §1

Test [4] concerns the target T3, CDK3 (Homo sapiens, UniProt Q00526).
T3 construct: purchased Eurofins DiscoverX Corporation
Kind of test: Kinome scan. The test is classed as binding. As to conditions: 1000 nM. Put shortly:
as §1

Test [5] has as its target T4, CK1δ (Homo sapiens, UniProt P48730).
T4 construct: purchased Eurofins DiscoverX Corporation
Kind of test: Kinase inhibition profile, KINOMEscan 11-point dose response. The test is classed as binding.

Test [6] deals with T5, CYP2D6 (Homo sapiens, UniProt P10635).
T5 construct: Human liver microsomes (0.25 mg/mL); from tissue; host or cells: human liver microsomes
T5 sequence (P10635 whole entry): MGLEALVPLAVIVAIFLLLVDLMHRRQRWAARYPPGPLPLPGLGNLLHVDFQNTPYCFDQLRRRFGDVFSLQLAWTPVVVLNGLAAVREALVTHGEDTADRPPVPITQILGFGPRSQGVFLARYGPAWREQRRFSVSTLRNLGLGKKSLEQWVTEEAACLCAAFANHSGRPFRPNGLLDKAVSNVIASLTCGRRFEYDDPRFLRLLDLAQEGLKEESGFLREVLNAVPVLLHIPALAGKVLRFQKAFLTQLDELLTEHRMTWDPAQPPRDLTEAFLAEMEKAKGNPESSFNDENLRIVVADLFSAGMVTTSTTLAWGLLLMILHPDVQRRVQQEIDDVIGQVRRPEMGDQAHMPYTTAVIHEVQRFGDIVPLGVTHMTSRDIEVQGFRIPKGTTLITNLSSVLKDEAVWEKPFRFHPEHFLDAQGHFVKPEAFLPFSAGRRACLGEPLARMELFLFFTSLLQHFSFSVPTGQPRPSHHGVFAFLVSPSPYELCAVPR
Briefly: CYP inhibition assay. In kind it is in vitro ADME. As to conditions: human liver microsomes.

Test [7] concerns the target T6, TRKA (Homo sapiens, UniProt P04629).
T6 construct: purchased Eurofins DiscoverX Corporation
Kind of test: Kinase inhibition profile, KINOMEscan 11-point dose response. In kind it is binding.

Test [8] relates to ACHN. Briefly: Antiproliferative activity against ACHN. As to conditions: Homo sapiens, renal cancer cell line expressing CK1δ and DYRK2, read-out: IC50 cell growth of ACHN. The test is classed as cell-based.
The mark [9] stands for this setting: 11-point 3-fold serial dilution.

T1 sequence (Q9Y463 whole entry): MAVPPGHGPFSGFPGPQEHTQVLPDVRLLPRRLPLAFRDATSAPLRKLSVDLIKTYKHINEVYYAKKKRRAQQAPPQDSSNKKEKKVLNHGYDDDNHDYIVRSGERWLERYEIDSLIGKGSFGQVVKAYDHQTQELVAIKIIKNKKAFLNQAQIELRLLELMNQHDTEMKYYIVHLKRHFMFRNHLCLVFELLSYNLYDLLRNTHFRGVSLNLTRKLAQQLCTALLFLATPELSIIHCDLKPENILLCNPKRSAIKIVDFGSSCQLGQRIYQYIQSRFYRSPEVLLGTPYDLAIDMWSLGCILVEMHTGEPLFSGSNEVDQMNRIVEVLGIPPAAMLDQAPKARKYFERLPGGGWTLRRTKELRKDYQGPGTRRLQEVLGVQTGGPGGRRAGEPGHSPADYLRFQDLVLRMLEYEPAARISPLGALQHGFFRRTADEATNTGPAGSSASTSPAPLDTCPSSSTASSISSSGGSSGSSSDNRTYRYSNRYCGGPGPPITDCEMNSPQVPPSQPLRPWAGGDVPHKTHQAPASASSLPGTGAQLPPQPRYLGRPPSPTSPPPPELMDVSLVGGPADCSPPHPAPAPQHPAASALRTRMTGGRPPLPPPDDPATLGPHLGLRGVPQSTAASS
T6 sequence (P04629 33-796): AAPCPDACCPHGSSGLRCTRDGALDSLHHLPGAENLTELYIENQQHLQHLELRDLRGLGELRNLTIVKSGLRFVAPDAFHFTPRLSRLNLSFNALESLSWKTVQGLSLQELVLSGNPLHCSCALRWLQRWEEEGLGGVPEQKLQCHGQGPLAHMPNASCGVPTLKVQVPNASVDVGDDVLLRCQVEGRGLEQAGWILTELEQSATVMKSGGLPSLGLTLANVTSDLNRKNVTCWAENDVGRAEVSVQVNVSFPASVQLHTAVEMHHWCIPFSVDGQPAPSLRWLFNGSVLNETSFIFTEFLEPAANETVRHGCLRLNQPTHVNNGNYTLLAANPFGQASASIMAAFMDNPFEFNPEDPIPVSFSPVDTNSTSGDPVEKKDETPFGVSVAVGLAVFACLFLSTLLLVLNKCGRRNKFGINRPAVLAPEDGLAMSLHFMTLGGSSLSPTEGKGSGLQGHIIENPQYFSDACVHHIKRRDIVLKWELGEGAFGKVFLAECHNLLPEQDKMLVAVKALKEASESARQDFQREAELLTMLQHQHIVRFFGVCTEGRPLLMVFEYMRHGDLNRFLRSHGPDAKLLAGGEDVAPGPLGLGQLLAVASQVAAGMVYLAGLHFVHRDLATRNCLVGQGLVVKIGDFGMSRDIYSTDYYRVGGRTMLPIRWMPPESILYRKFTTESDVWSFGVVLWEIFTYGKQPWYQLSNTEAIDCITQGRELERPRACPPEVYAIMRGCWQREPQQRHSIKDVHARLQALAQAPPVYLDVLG
T4 sequence (P48730 whole entry): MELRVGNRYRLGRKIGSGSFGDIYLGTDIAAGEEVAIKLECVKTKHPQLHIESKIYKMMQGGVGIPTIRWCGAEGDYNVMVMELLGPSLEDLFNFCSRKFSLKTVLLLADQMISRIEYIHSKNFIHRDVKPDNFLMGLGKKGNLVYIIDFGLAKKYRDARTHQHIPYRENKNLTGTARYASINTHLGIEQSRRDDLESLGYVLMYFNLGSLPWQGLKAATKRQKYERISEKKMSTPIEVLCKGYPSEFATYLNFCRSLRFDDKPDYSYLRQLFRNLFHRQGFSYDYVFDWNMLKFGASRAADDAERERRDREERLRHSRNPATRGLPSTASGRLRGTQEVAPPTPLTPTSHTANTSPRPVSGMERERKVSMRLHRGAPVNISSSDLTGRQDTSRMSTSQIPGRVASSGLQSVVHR
T2 sequence (Q9BVS4 whole entry): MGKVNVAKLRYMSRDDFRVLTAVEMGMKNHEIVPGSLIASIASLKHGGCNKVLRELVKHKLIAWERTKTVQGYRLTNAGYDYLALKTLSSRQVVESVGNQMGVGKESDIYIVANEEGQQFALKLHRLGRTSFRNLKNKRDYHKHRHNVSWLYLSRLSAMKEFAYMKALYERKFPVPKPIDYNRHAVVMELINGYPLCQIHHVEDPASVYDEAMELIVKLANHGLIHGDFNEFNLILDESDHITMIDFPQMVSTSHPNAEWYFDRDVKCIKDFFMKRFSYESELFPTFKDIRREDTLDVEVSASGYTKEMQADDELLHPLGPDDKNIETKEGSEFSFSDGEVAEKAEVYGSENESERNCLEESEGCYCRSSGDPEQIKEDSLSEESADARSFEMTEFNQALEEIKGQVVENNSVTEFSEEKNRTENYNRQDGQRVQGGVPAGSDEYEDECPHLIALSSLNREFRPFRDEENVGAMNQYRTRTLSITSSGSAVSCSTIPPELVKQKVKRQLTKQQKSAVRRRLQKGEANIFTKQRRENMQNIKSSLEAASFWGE
T3 sequence (Q00526 whole entry): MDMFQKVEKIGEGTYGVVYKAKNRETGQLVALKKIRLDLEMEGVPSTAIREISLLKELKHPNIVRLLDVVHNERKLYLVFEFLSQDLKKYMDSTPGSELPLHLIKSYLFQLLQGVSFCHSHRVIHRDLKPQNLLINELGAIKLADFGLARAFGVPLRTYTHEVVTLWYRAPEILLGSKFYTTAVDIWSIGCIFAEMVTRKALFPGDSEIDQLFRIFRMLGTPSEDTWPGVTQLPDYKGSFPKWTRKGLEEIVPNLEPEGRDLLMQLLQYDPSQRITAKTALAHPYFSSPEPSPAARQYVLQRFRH

One may read the IC50 as the point on the concentration scale where inhibition reaches its midpoint. Broadly, the Ki is a dissociation constant, usually derived from enzyme kinetics or from competition with a known ligand. In general, inhibition refers to the drop in the measured response relative to a control, in per cent. A word on the % inhibition: it is the percentage by which the read-out fell short of the control. Take `C#Cc1cn([C@@H]2S[C@H](CO)[C@@H](O)[C@H]2O)c2ncnc(N)c12` [Compound 1g, (2R,3R,4S,5R)-2-(4-Amino-5-ethynyl-7H-pyrrolo[2,3-d]pyrimidin-7-yl)-5-(hydroxymethyl)tetrahydrothiophene-3,4-diol]: the IC50 in test [1] (setting [9]) is 0.033 µM; in test [5] (setting [9]) it was 0.08 µM; in test [6], > 20 µM; in test [7] (setting [9]), 0.148 µM; in test [8] it was ~0.04 µM. In addition, the Ki amounted to 0.033 µM in test [1] (by Cheng-Prusoff equation), 0.08 µM in test [5] (by Cheng-Prusoff equation) and 0.296 µM in test [7] (by Cheng-Prusoff equation). Further, the inhibition at 1 µM in test [2] was determined as 0%; in test [4], 18%. Also, the “% inhibition” value in test [3] amounted to 0.0%.
